For experiment [1], the target named is T1, 5-HT2B receptor (Homo sapiens, UniProt P41595). The experiment in a line: Affinity for 5HT2 receptor binding sites, h5-HT2B, [3H]mesulergine. The conditions noted are these: CHO h5-HT2B membranes.
For experiment [2], the target named is T2, human recombinant 5-HT2C receptor (Homo sapiens, UniProt P28335).
T2 sequence (P28335 33-458): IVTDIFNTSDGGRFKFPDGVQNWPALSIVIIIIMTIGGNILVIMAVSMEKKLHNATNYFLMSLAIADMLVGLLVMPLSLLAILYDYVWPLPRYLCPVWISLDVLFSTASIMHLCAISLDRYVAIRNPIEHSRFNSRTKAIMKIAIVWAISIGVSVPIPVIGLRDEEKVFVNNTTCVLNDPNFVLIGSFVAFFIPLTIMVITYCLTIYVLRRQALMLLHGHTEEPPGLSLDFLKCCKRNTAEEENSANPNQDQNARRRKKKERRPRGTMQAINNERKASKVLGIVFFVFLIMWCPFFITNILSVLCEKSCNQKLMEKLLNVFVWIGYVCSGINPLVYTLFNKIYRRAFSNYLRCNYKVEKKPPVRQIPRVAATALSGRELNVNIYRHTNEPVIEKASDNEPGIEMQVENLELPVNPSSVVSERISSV
The experiment in a line: Affinity for 5HT2 receptor binding sites, h5-HT2C, [3H]mesulergine. The conditions noted are these: CHO h5-HT2C membranes.

For experiment [3], the target named is T3, 5-HT2A receptor (Homo sapiens, UniProt P28223). The experiment in a line: In vitro functional assay for 5-HT2 receptor (intracellular calcium, FLIPR), 5-HT2A. The experiment is classed as cell-based. The conditions noted are these: same cell lines as receptor binding, read-out: pKb 5-HT2A (converted). The text has this: The 5-HT2 receptors are linked to the Gq family of G proteins and to subsequent activation of phospholipase C, induction of phosphoinositide metabolism and to an increase in intracelular calcium concentration. The same cell lines as described in the previous section (receptor binding) were used for the FLIPR experiments.

Experiment [4] has as its target rat 5-HT7a receptor (Rattus norvegicus, UniProt P32305). The experiment in a line: Affinity for 5-HT7 receptor binding sites, radioligand binding with [3H]5-CT. Particulars: membranes of HEK-293 cells with rat 5-HT7a, 1 nM [3H]5-CT. In outline: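 Competition binding on membranes from HEK-293 cells stably expressing rat 5-HT7a, 135 μg protein/mL in 50 mM Tris-HCl pH 7.5, 5 mM EDTA. Incubated 60 min at RT with 1 nM [3H]5-CT and increasing compound concentrations; nonspecific binding with 10 μM 5-HT. Filtration and scintillation counting, in triplicate.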

Experiment [5] has as its target T3, 5-HT2A receptor. The experiment in a line: Affinity for 5-HT2A receptor binding sites, radioligand binding with [3H]ketanserin. Particulars: read-out: Ki 5-HT2A, rat cortex membranes (assay 2) or NIH3T3 h5-HT2A membranes (assay 3), table does not say which.
Experiment [6] addresses T1, 5-HT2B receptor. The experiment in a line: In vitro functional assay for 5-HT2 receptor (intracellular calcium, FLIPR), 5-HT2B. The experiment is classed as cell-based. Particulars: same cell lines as receptor binding, read-out: pKb 5-HT2B (converted). How it is done:
In vitro functional properties of these compounds on the different 5-HT2 receptor substypes were determined using fluorometric imaging plate reader (FLIPR) based calcium assay as previously described (Porter, R. H. et al. Br. J. Pharmacol. 1999, 128, 13-20; Jerman, J. C. et al. Eur. J. Pharmacol. 2001, 414, 23-30). The 5-HT2 receptors are linked to the Gq family of G proteins and to subsequent activation of phospholipase C, induction of phosphoinositide metabolism and to an increase in intracelular calcium concentration. The same cell lines as described in the previous section (receptor binding) were used for the FLIPR experiments.

For experiment [7], the target named is human recombinant 5-HT6 receptor (Homo sapiens, UniProt P50406). The experiment in a line: Affinity for 5-HT6 receptor binding sites, [3H]LSD. The conditions noted are these: HEK-293 h5-HT6 membranes.

Where a name gives a salt, the structure may show the parent alone.

One may read the Ki as the dissociation constant of the complex between target and ligand, obtained from inhibition or displacement.

human recombinant 5-HT6 receptor, sequence (P50406 whole entry): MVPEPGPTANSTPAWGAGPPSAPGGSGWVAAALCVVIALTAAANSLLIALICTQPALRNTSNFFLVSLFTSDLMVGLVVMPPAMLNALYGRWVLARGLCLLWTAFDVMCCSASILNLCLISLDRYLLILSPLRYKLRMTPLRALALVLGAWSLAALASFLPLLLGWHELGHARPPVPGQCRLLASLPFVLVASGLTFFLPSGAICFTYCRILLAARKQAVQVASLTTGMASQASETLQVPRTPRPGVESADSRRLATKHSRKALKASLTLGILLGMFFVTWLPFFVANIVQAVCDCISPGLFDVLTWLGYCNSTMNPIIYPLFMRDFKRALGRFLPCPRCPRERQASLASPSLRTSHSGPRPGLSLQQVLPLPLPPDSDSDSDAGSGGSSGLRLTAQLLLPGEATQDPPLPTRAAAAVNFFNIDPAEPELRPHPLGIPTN
rat 5-HT7a receptor, sequence (P32305 whole entry): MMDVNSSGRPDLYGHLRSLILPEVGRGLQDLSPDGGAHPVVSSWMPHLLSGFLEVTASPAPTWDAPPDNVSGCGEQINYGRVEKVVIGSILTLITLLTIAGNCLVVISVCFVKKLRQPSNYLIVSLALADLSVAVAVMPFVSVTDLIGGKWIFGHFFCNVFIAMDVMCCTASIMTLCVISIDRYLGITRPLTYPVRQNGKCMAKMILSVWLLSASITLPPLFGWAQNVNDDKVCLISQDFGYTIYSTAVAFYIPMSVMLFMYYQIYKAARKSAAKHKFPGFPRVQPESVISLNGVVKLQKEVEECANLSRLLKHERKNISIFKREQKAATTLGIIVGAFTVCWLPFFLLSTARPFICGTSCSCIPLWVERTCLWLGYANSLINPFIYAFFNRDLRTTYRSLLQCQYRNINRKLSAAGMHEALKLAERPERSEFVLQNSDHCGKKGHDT
T1 sequence (P41595 whole entry): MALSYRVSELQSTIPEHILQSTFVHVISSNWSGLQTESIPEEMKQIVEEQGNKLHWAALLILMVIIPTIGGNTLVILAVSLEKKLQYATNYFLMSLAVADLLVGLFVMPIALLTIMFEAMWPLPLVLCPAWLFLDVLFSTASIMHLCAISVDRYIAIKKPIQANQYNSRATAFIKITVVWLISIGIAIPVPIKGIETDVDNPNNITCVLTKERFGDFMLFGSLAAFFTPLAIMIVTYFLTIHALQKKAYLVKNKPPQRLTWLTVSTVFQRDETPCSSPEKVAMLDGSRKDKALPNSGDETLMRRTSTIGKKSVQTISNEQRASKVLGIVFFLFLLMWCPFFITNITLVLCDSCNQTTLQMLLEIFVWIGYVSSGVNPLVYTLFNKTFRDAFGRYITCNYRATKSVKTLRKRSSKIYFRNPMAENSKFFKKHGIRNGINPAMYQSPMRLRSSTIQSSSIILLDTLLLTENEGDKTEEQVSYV
T3 sequence (P28223 whole entry): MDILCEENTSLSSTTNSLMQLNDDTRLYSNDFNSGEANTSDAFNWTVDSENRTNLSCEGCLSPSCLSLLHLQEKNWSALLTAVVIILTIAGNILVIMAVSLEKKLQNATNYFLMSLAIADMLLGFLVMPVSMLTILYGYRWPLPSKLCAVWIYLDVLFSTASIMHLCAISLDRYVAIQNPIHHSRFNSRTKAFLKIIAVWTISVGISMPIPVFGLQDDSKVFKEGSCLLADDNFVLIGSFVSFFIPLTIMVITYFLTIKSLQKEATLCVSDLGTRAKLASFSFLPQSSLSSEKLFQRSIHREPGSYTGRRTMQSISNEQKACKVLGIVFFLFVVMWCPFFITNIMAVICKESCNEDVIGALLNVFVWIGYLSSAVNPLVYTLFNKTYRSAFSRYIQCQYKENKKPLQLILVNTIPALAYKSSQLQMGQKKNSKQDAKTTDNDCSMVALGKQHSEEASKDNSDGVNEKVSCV

In the case of `Fc1ccc(Cc2nc3c(c(-c4ccc(F)cc4)n2)CNCC3)cc1` [Example 13, 2-(4-Fluoro-benzyl)-4-(4-fluoro-phenyl)-5,6,7,8-tetrahydro-pyrido[4,3-d]pyrimidine], the Ki is 2.2 µM in experiment [1], 1 µM in experiment [2], over 10 µM in experiment [4] and 0.0125 µM in experiment [5]. The Kb in experiment [3] was 0.0794 µM.
Turning to `Fc1ccc(-c2nc(C3CCCC3)nc3c2CNCC3)cc1` [Example 17, 2-Cyclopentyl-4-(4-fluoro-phenyl)-5,6,7,8-tetrahydro-pyrido[4,3-d]pyrimidine], the Ki in experiment [1] is 0.25 µM; in experiment [2], 0.07 µM; in experiment [4], over 10 µM; in experiment [5], 0.004 µM. The values for the Kb in experiment [3] and in experiment [6] were 0.00794 µM and 3.98 µM, respectively.
For the molecule `Cc1ccc(-c2nc(C3CCCC3)nc3c2CNCC3)cc1` [Example 18, 2-Cyclopentyl-4-p-tolyl-5,6,7,8-tetrahydro-pyrido[4,3-d]pyrimidine], the Ki in experiment [1] was 0.08 µM; in experiment [7], 0.33 µM; in experiment [2], 0.06 µM; in experiment [4] it was 0.525 µM; in experiment [5] it was 0.01 µM. Also, the Kb is 0.0251 µM in experiment [3] and 0.2 µM in experiment [6].
Take `CC(C)c1nc2c(c(-c3ccc(F)cc3)n1)CNCC2` [Example 21, 4-(4-Fluoro-phenyl)-2-isopropyl-5,6,7,8-tetrahydro-pyrido[4,3-d]pyrimidine hydrochloride]: the Ki was 1.19 µM in experiment [1]; over 10 µM in experiment [7]; 1.17 µM in experiment [2]; over 10 µM in experiment [4]; 0.025 µM in experiment [5]. Also, the Kb in experiment [3] is 0.0316 µM.
In the case of `CC(C)c1nc2c(c(-c3ccc(F)cc3)n1)CCNCC2` [Example 50, 4-(4-Fluoro-phenyl)-2-isopropyl-6,7,8,9-tetrahydro-5H-pyrimido[4,5-d]azepine hydrochloride], the Ki in experiment [1] amounted to 0.02 µM; in experiment [7], 0.26 µM; in experiment [2], 0.08 µM; in experiment [4] it was 0.24 µM; in experiment [5] it was 0.0037 µM. In experiment [6], the Kb was 0.00501 µM.
Consider `Fc1ccc(Cc2nc3c(c(-c4ccc(F)cc4)n2)CCNCC3)cc1` [Example 57, 2-(4-Fluoro-benzyl)-4-(4-fluoro-phenyl)-6,7,8,9-tetrahydro-5H-pyrimido[4,5-d]azepine], for which the Ki is 0.04 µM in experiment [1]; 0.08 µM in experiment [7]; 0.05 µM in experiment [2]; 0.55 µM in experiment [4]; 0.0007 µM in experiment [5]. The Kb is 0.00631 µM in experiment [3] and 0.126 µM in experiment [6].
For `CN1CCc2nc(Cc3ccc(F)cc3)nc(-c3ccc(F)cc3)c2CC1` [Example 62, 2-(4-Fluoro-benzyl)-4-(4-fluoro-phenyl)-7-methyl-6,7,8,9-tetrahydro-5H-pyrimido[4,5-d]azepine], the Ki was 0.021 µM in experiment [1]; 0.027 µM in experiment [7]; 0.021 µM in experiment [2]; 5.27 µM in experiment [4]; 0.00075 µM in experiment [5]. For the same molecule, the Kb in experiment [3] was 0.00158 µM; in experiment [6], 0.0501 µM.
For `C=C1CN(C)CCc2c1nc(Cc1ccc(F)cc1)nc2-c1ccc(F)cc1` [Example 63, 2-(4-Fluoro-benzyl)-4-(4-fluoro-phenyl)-7-methyl-9-methylene-6,7,8,9-tetrahydro-5H-pyrimido[4,5-d]azepine], the inhibition constant (Ki) in experiment [1] is 0.052 µM; in experiment [7] it was 0.06 µM; in experiment [2], 0.046 µM; in experiment [4], over 10 µM; in experiment [5], 0.0015 µM. Also, the values for the Kb in experiment [3] and in experiment [6] were 0.0158 µM and 0.501 µM, respectively.
Take `Fc1ccc(-c2nc(Cc3ccccc3)nc3c2CCCNC3)cc1` [Example 64, 2-Benzyl-4-(4-fluoro-phenyl)-6,7,8,9-tetrahydro-5H-pyrimido[4,5-c]azepine hydrochloride]: the Ki was 1.3 µM in experiment [1]; 1.3 µM in experiment [7]; 0.07 µM in experiment [2]; over 10 µM in experiment [4]; 0.01 µM in experiment [5]. The Kb in experiment [3] was 0.0794 µM.
Consider `Fc1ccc(-c2nc(Cc3ccccc3)nc3c2CCNC3)cc1` [Example 76, 2-Benzyl-4-(4-fluoro-phenyl)-5,6,7,8-tetrahydro-pyrido[3,4-d]pyrimidine hydrochloride], for which the inhibition constant (Ki) in experiment [1] stood at 0.315 µM; in experiment [7], 0.3 µM; in experiment [2], 0.075 µM; in experiment [4], 0.15 µM; in experiment [5], 0.009 µM. In addition, the Kb in experiment [3] was 0.1 µM.
Turning to `c1ccc(Cc2nc3c(c(-c4ccccc4)n2)CCNC3)cc1` [Example 78, 2-Benzyl-4-phenyl-5,6,7,8-tetrahydro-pyrido[3,4-d]pyrimidine], the Ki in experiment [1] was determined as 0.9 µM; in experiment [2] it was 0.38 µM; in experiment [4] it was 0.4 µM; in experiment [5], 0.025 µM. In addition, in experiment [3], the Kb is 0.0794 µM.
Consider `CN1CCc2c(nc(Cc3ccccc3)nc2-c2ccc(F)cc2)C1` [Example 82, 2-Benzyl-4-(4-fluoro-phenyl)-7-methyl-5,6,7,8-tetrahydro-pyrido[3,4-d]pyrimidine hydrochloride], for which the Ki in experiment [1] is 0.5 µM; in experiment [7], 0.23 µM; in experiment [2], 0.02 µM; in experiment [4], over 10 µM; in experiment [5] it was 0.002 µM. Moreover, the Kb is 0.00794 µM in experiment [3] and 3.98 µM in experiment [6].
As for `CC(C)c1nc(-c2ccc(F)cc2)c2c(n1)C(C)CNC2` (stereo not shown) [Example 100, 4-(4-Fluoro-phenyl)-2-isopropyl-8-methyl-5,6,7,8-tetrahydro-pyrido[4,3-d]pyrimidine hydrochloride], the Ki in experiment [1] was 0.9 µM; in experiment [2], 0.3 µM; in experiment [4] it was over 10 µM; in experiment [5], 0.014 µM. The Kb in experiment [3] was 0.1 µM.
As to `CNC1CCc2nc(C(C)C)nc(-c3ccc(F)cc3)c2C1` (stereo not shown) [Example 109, [4-(4-Fluoro-phenyl)-2-isopropyl-5,6,7,8-tetrahydro-quinazolin-6-yl]-methyl-amine hydrochloride], the Ki in experiment [1] was over 10 µM; in experiment [7], over 10 µM; in experiment [2], over 10 µM; in experiment [4], over 10 µM; in experiment [5] it was 0.4 µM.

The values above are taken from patent US7598255B2 (Janssen Pharmaceutica NV, priority 2005, dated 2009).
